Our source for the GI50 and TGI values is PubChem BioAssay (NCI).

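In this assay, cells in 96-well plates receive the compound at five concentrations for 48 hours. Endpoints are linearly interpolated between the surrounding concentrations. The concentration for 50% growth inhibition is given as GI50. TGI is the concentration that stops growth completely.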

Test systems include HS 578T breast; PC-3 prostate; SK-MEL-5 melanoma; A549 NSCLC; MALME-3M melanoma; SF-268 CNS; RXF 393 renal; ACHN renal; MDA-MB-435; SNB-19 CNS.
Test in all cases: NCI anticancer screen, dose series, 48 h

Regarding `CC[C@@H](C(=O)[C@H](C)[C@H](O)[C@@H](C)[C@H]1O[C@H]([C@@H](CC)C(=O)N(CC)CC)CC[C@H]1C)C1O[C@]2(C=C[C@@H](O)[C@]3(CC[C@@](C)([C@H]4CC[C@](O)(CC)[C@H](C)O4)O3)O2)[C@H](C)C[C@@H]1C` (stereo not given in full), the GI50 with HS 578T breast was 2.9 µM; in the assay with PC-3 prostate, 2.54 µM; in the assay on SK-MEL-5 melanoma, 1.76 µM; in the assay with A549 NSCLC, 2.95 µM; in the assay with MALME-3M melanoma, 2.21 µM; with SF-268 CNS, 3.6 µM. Besides, the GI50 is 2.06 µM with RXF 393 renal, 2.93 µM in the assay with ACHN renal, 2.81 µM in the assay on MDA-MB-435 and 3.24 µM with SNB-19 CNS. The TGI with HS 578T breast was 13.8 µM; with PC-3 prostate, 11.9 µM; in the assay with SK-MEL-5 melanoma, 3.24 µM; in the assay on A549 NSCLC, 17.6 µM; with MALME-3M melanoma, 5.7 µM; in the assay on SF-268 CNS, 19.3 µM. For the same compound, the TGI with RXF 393 renal turned out to be 5.87 µM; in the assay on ACHN renal, 10 µM; in the assay with MDA-MB-435 it was 9.8 µM; with SNB-19 CNS, 16.8 µM.
`CCOC(=O)c1cc(C(=O)c2cc(OC)c(OC)c(OC)c2)n2c1ccc1ccccc12`: the GI50 was 0.276 µM with HS 578T breast; 0.294 µM in the assay with PC-3 prostate; 0.434 µM in the assay on SK-MEL-5 melanoma; 0.286 µM with A549 NSCLC; 0.634 µM with MALME-3M melanoma; 1.94 µM with SF-268 CNS. For the same compound, the GI50 with RXF 393 renal is 0.22 µM; with ACHN renal it was 0.997 µM; in the assay on MDA-MB-435 it was 0.0367 µM; in the assay with SNB-19 CNS, 0.636 µM. Also, the TGI in the assay on HS 578T breast is greater than 20.6 µM; in the assay on PC-3 prostate, greater than 100 µM; in the assay on SK-MEL-5 melanoma it was greater than 100 µM; in the assay with A549 NSCLC, greater than 100 µM; with MALME-3M melanoma it was greater than 100 µM; with SF-268 CNS it was greater than 100 µM. Moreover, the TGI in the assay with RXF 393 renal was 0.81 µM; in the assay with ACHN renal, greater than 100 µM; with MDA-MB-435, 0.173 µM; with SNB-19 CNS, greater than 100 µM.
`C[C@@H]1CCC([C@@H](C)[C@H]2CC[C@H]3[C@@H]4CC[C@H]5C[C@@H](O)CC[C@]5(C)[C@H]4CC[C@]23C)=NC1`: the TGI is greater than 100 µM with HS 578T breast; greater than 100 µM in the assay on PC-3 prostate; 42.8 µM in the assay on SK-MEL-5 melanoma; greater than 100 µM in the assay with A549 NSCLC; greater than 100 µM in the assay with MALME-3M melanoma; greater than 100 µM in the assay on SF-268 CNS. Also, the TGI was greater than 100 µM in the assay with RXF 393 renal, greater than 61.5 µM in the assay with ACHN renal, greater than 100 µM in the assay with MDA-MB-435 and greater than 100 µM in the assay with SNB-19 CNS.
With `C[C@]12CC[C@@H]3c4cc(O)c(O)cc4CC[C@H]3[C@@H]1CC[C@@H]2O`, the GI50 with HS 578T breast is 1.98 µM; with PC-3 prostate it was 10.5 µM; with SK-MEL-5 melanoma, 3.54 µM; with A549 NSCLC, 7.16 µM; in the assay on MALME-3M melanoma it was 0.708 µM; with SF-268 CNS, 5.81 µM. Moreover, the GI50 in the assay on RXF 393 renal was 2.44 µM; in the assay with ACHN renal, 8.94 µM; in the assay with MDA-MB-435, 0.286 µM; with SNB-19 CNS, 11.1 µM. The TGI was 17.5 µM with HS 578T breast; greater than 100 µM in the assay on PC-3 prostate; 16.1 µM with SK-MEL-5 melanoma; greater than 82.4 µM in the assay with A549 NSCLC; 44.4 µM with MALME-3M melanoma; greater than 83.2 µM in the assay on SF-268 CNS. Also, the TGI in the assay with RXF 393 renal is 19 µM; in the assay on ACHN renal, 54.5 µM; in the assay on MDA-MB-435 it was 1.1 µM; in the assay on SNB-19 CNS, greater than 100 µM.
For `O=C(/C(=C/c1ccc([N+](=O)[O-])cc1)SCc1ccc(Cl)cc1)c1ccc(F)cc1`, the GI50 with HS 578T breast is 2.42 µM; with PC-3 prostate, 2.12 µM; in the assay on SK-MEL-5 melanoma, 2.85 µM; in the assay with A549 NSCLC, 49.5 µM; in the assay with MALME-3M melanoma it was 3.22 µM; in the assay with SF-268 CNS it was 4.95 µM. The GI50 in the assay on RXF 393 renal is 5.75 µM; in the assay on ACHN renal it was 1.76 µM; with MDA-MB-435, 2.23 µM; in the assay with SNB-19 CNS, 1.87 µM. In addition, the TGI was 7.68 µM with HS 578T breast; 5.74 µM in the assay on PC-3 prostate; 8.87 µM in the assay on SK-MEL-5 melanoma; greater than 100 µM in the assay with A549 NSCLC; 12.3 µM in the assay with MALME-3M melanoma; 21.6 µM with SF-268 CNS. Further, the TGI came out at 18.3 µM in the assay with RXF 393 renal, 3.33 µM in the assay with ACHN renal, 5.87 µM in the assay with MDA-MB-435 and 4.11 µM in the assay with SNB-19 CNS.
Take `Cn1cc(C2=C(c3c4n(c5ccccc35)CCC(CN)C4)C(=O)NC2=O)c2ccccc21` (stereo not given): the GI50 was 1.55 µM with HS 578T breast; 2.77 µM in the assay on PC-3 prostate; 3.99 µM in the assay on SK-MEL-5 melanoma; 3.05 µM with A549 NSCLC; 2.75 µM with MALME-3M melanoma; 3.95 µM with SF-268 CNS. Moreover, the GI50 with RXF 393 renal is 3.01 µM; in the assay on ACHN renal, 3.2 µM; with MDA-MB-435 it was 2.52 µM; with SNB-19 CNS, 3.96 µM. Also, the TGI in the assay on HS 578T breast amounted to 8.2 µM; with PC-3 prostate, 6.59 µM; with SK-MEL-5 melanoma, 7.82 µM; with A549 NSCLC, 7.83 µM; with MALME-3M melanoma, 6.07 µM; in the assay with SF-268 CNS, 7.65 µM. Also, the TGI came out at 6.47 µM in the assay with RXF 393 renal, 7.02 µM in the assay with ACHN renal, 5.97 µM in the assay on MDA-MB-435 and 9.26 µM in the assay with SNB-19 CNS.
`COc1cc2ncnc(Nc3cccc(Cl)c3F)c2cc1OC(=O)N1CCN(C)C[C@H]1C`: the GI50 was 21 µM in the assay with HS 578T breast; 35.3 µM in the assay on PC-3 prostate; greater than 39.8 µM in the assay on SK-MEL-5 melanoma; greater than 34.3 µM in the assay with A549 NSCLC; greater than 39.5 µM with MALME-3M melanoma; greater than 37.1 µM with SF-268 CNS. For the same compound, the GI50 was greater than 34.4 µM in the assay with RXF 393 renal, 0.273 µM in the assay on ACHN renal, greater than 40.7 µM in the assay on MDA-MB-435 and greater than 44.8 µM in the assay with SNB-19 CNS. Besides, the TGI with HS 578T breast was greater than 60.8 µM; with PC-3 prostate it was greater than 93.3 µM; with SK-MEL-5 melanoma, greater than 56.9 µM; in the assay with A549 NSCLC, greater than 58.2 µM; with MALME-3M melanoma it was greater than 60.6 µM; with SF-268 CNS it was greater than 75.3 µM. The TGI with RXF 393 renal is greater than 50.8 µM; in the assay on ACHN renal it was greater than 46.3 µM; with MDA-MB-435 it was greater than 59.7 µM; with SNB-19 CNS it was greater than 100 µM.
`c1ccc2cc(NCNc3ccc4ccccc4c3)ccc2c1`: the TGI was greater than 100 µM in the assay on HS 578T breast; greater than 58.3 µM in the assay on PC-3 prostate; 18.5 µM with SK-MEL-5 melanoma; 47.5 µM in the assay on A549 NSCLC; 20 µM in the assay on MALME-3M melanoma; greater than 100 µM with SF-268 CNS. In addition, the TGI in the assay on RXF 393 renal is 29.9 µM; with ACHN renal it was 38 µM; in the assay with MDA-MB-435 it was 3.32 µM; in the assay on SNB-19 CNS, greater than 100 µM.
